Laboratory results taken from PMC6736568, “Discovery of Novel Anti-cryptosporidial Activities From Natural Products by in vitro High-Throughput Phenotypic Screening” (Frontiers in Microbiology, 2019).
Counter-ions that a name gives are not always drawn. Like-named read-outs stand apart in the source and are kept apart here.

Key:
Cryptosporidium parvum = test: qRT-PCR assay of the growth of C. parvum in vitro in HCT-8 host cells (primary and secondary screening, EC50); type: cell-based; conditions: Cryptosporidium parvum, HCT-8; for inhibition at 3.3 µM: secondary screening at 3.3 uM, read-out: % Inhibition (3.3 uM)
[1] = primary screening at 10 uM, read-out: Inhibition (%)
[2] = primary screening at 10 uM, treated vs control

Hs18S ΔCT (HCT-8 host cells (Hs18S); human, 41 h, 10 μM) | SMILES | inhibition at 10 µM (Cryptosporidium parvum; [1]) [%] | cytotoxicity at 41 h, 10 µM (in vitro; human) [%] | further results
 | COc1cc(/C=C/C(=O)N2CCC=CC2=O)cc(OC)c1OC [PIPLARTINE] | 73.7 |  | inhibition at 3.3 µM (Cryptosporidium parvum): 10%; cytotoxicity at 10 µM (in vitro): 20.5%; Hs18S ΔCT (HCT-8 host cells (Hs18S); [2]): 0.33
-0.10 | COc1cc(O)c2c(=O)cc(C)oc2c1CC=C(C)C [HETEROPEUCENIN, METHYL ETHER] | -96.3 | -7.2 | 
 | C=C(C)[C@@H]1CC[C@]2(C)CC[C@]3(C)[C@H](CC[C@@H]4[C@@]5(C)CC[C@H](O)C(C)(C)[C@@H]5CC[C@]43C)[C@@H]12 [LUPEOL] | 41.8 | 3.4 | Hs18S ΔCT (HCT-8 host cells (Hs18S); [2]): 0.05
0.11 | COc1c2ccoc2nc2c(OC)c(OCC(O)C(C)(C)O)ccc12 (centres unmarked) [EVOXINE] | -7.37 | 7 | 
-0.14 | C[C@H]1[C@H]2CC[C@H]3[C@@H]4CC=C5C[C@@H](N(C)C)CC[C@]5(C)[C@H]4CC[C@]23CN1C [CONESSINE] | -2.33 | -10.4 | 
 | COc1cc2c(cc1OC)-c1c(oc3c4c(ccc3c1=O)OC(C(C)C)C4)CO2 (centres unmarked) [DEHYDRODIHYDROROTENONE] | -21.6 |  | cytotoxicity at 10 µM (in vitro): 4.4%; Hs18S ΔCT (HCT-8 host cells (Hs18S); [2]): 0.06
-0.27 | COc1c2ccoc2cc2oc(C)cc(=O)c12 [VISNAGIN] | 15.1 | -20.7 | 
0.26 | OC[C@@H](O)[C@@H](O)[C@@H](O)CO [ADONITOL] | 6.19 | 16.4 | 
0.08 | COc1cc(O)c(C(C)=O)c(OC)c1 [XANTHOXYLIN] | -20.7 | 5.4 | 
 | CCCCCCCCCCCC1=C(O)C(=O)C=C(O)C1=O [EMBELIN] | -5.38 |  | cytotoxicity at 10 µM (in vitro): 8.8%; Hs18S ΔCT (HCT-8 host cells (Hs18S); [2]): 0.13
-0.17 | COc1ccc([C@@H](C)C(=O)c2ccc(O)cc2O)cc1 [ANGOLENSIN (R)] | -26.9 | -12.5 | 
 | C[C@H]1C(=O)O[C@@H]2CCN3CC=C(COC(=O)[C@](C)(O)[C@]1(C)O)[C@H]23 [MONOCROTALINE] | 12 |  | cytotoxicity at 10 µM (in vitro): 9.5%; Hs18S ΔCT (HCT-8 host cells (Hs18S); [2]): 0.14
-0.10 | CC[C@@H]1C(=O)OC[C@@H]1Cc1cncn1C [PILOCARPINE NITRATE] | -30.2 | -7.3 | 
 | COc1ccc2c(c1)OC[C@@H](Cc1ccc(OC)c(OC)c1)[C@H]2O | 9.9 |  | cytotoxicity at 10 µM (in vitro): -6.9%; Hs18S ΔCT (HCT-8 host cells (Hs18S); [2]): -0.10
-0.20 | CC(C)(c1ccc(O)cc1)c1ccc(O)cc1 [BISPHENOL A] | -35.2 | -15 | 
 | O=C1c2ccccc2C(=O)c2c(O)c(O)cc(O)c21 [PURPURIN] | -37.2 | -14.3 | Hs18S ΔCT (HCT-8 host cells (Hs18S); [2]): -0.19
-0.02 | COc1ccc([C@@H]2CC(=O)c3c(O)cc(O)cc3O2)cc1O [HESPERETIN] | 17.6 | -1.2 | 
-0.49 | NC[C@H]1O[C@H](O[C@H]2[C@H](O)[C@@H](O[C@H]3O[C@H](CO)[C@@H](O)[C@H](N)[C@H]3O)[C@H](N)C[C@@H]2N)[C@H](N)C[C@@H]1O [TOBRAMYCIN] | 4.08 | -40.8 | 
 | CN[C@@H]1[C@H](O[C@H]2[C@H](O[C@H]3[C@H](O)[C@@H](O)[C@H](NC(=N)N)[C@@H](O)[C@@H]3NC(=N)N)O[C@@H](C)[C@]2(O)CO)O[C@@H](CO)[C@H](O)[C@H]1O [DIHYDROSTREPTOMYCIN SULFATE] | 18 | 3.4 | Hs18S ΔCT (HCT-8 host cells (Hs18S); [2]): 0.05
-0.15 | CC1(C)CC2C1CCC1(C)OC1CCC2(C)O (centres unmarked) [2-HYDROXY-5 (6)EPOXY-TETRAHYDROCARYOPHYLLENE] | 46.2 | -10.9 | 
 | COc1cc2c(cc1OC)[C@@H]1C(=O)c3ccc4oc(C(C)C)cc4c3O[C@@H]1CO2 [ISOROTENONE] | 2.53 |  | cytotoxicity at 10 µM (in vitro): 38.9%; Hs18S ΔCT (HCT-8 host cells (Hs18S); [2]): 0.71

Hs18S ΔCT (HCT-8 host cells (Hs18S); human, 41 h, 10 μM) | SMILES | inhibition at 10 µM (Cryptosporidium parvum; [1]) [%] | cytotoxicity at 41 h, 10 µM (in vitro; human) [%] | further results
-0.53 | Nc1ccn([C@@H]2O[C@H](CO)[C@@H](O)[C@H]2O)c(=O)n1 [CYTIDINE] | 36.7 | -44.6 | 
-0.18 | COC(=O)C[C@H]1C(C)(C)[C@@H](O)[C@@H]2CC3=C4CC(O)O[C@@H](c5ccoc5)[C@]4(C)CCC3[C@@]1(C)C2=O (stereo partly drawn) [3,16-DIDEOXYMEXICANOLIDE-3beta-DIOL] | 87.5 | -13.4 | inhibition at 3.3 µM (Cryptosporidium parvum): 52%
-0.34 | COc1cc(C)c(C(=O)O)c(O)c1 [EVERNINIC ACID] | 52.1 | -26.6 | 
-0.47 | C[C@]12CCC(=O)C=C1CC[C@@H]1[C@@H]2[C@@H](O)C[C@@]2(C)[C@H]1CC[C@]2(O)C(=O)CO [HYDROCORTISONE] | 21.1 | -38.1 | 
0.20 | CCCCCc1c2c(cc(O)c1C(=O)O)OC(=O)c1c(cc(OC)cc1C(=O)CCCC)O2 [LOBARIC ACID] | 18.2 | 13.1 | 
-0.11 | C[C@@H]1CC[C@H]2C(C)(C)[C@H]3C[C@@]12CC[C@@]3(C)O [CEDROL] | -4.53 | -7.7 | 
-0.06 | CCCCC[C@H](CC(=O)NO)C(=O)N[C@H](C(=O)N1CCC[C@H]1CO)C(C)C [ACTINONIN] | 31.3 | -4.6 | 
-0.59 | COC1=CC(=O)C(C(=O)c2ccccc2)=CC1=O [2-BENZOYL-5-METHOXYBENZOQUINONE] | 16.2 | -50.7 | 
0.01 | CC1(C)C[C@@H]2C(=O)CC[C@H]3O[C@]3(C)CC[C@H]21 [KOBUSONE] | -24.4 | 0.5 | 
 | C=C[C@H]1CN2CC[C@H]1C[C@H]2[C@H](O)c1ccnc2ccccc12 [CINCHONIDINE] | 3.76 |  | cytotoxicity at 41 h, 10 µM (in vitro): -15.2%; Hs18S ΔCT (HCT-8 host cells (Hs18S); [2]): -0.20
0.00 | COc1cc(-c2coc3cc(OCc4ccccc4)c(OC)c(O)c3c2=O)cc(OCc2ccccc2)c1OC [IRIGENIN, DIBENZYL ETHER] | -15.7 | 0 | 
-0.19 | OC[C@@H](O)[C@@H](O[C@@H]1O[C@H](CO)[C@@H](O)[C@H](O)[C@H]1O)[C@H](O)[C@@H](O)CO [GLUCITOL-4-GUCOPYANOSIDE] | 4.89 | -14.4 | 
-0.08 | O=C(CCc1ccc(O)cc1)c1c(O)cc(O)cc1O[C@@H]1O[C@H](CO)[C@@H](O)[C@H](O)[C@H]1O [PHLORIDZIN] | 28.9 | -5.8 | 
0.24 | CC1(C)CC23C(=O)CCC(O)C2(C)CCC13 (centres unmarked) [3-NOR-3-OXOPANASINSAN-6-OL] | 23.9 | 15.3 | 
-0.06 | C[C@]12CC[C@@H](O)C[C@H]1CCc1ccccc12 [3alpha-HYDROXY-4,4-BISNOR-8,11,13-PODOCARPATRIENE] | -50.2 | -4.1 | 
0.81 | CC[C@]1(O)C[C@@H]2CN(CCc3c([nH]c4ccccc34)[C@@](C(=O)OC)(c3cc4c(cc3OC)N(C)[C@H]3[C@@](O)(C(=O)OC)[C@H](OC(C)=O)[C@]5(CC)C=CCN6CC[C@]43[C@@H]65)C2)C1 [VINBLASTINE SULFATE] | 71.7 | 43 | inhibition at 3.3 µM (Cryptosporidium parvum): 67%
 | NCCCCN [PUTRESCINE DIHYDROCHLORIDE] |  |  | inhibition at 10 µM (Cryptosporidium parvum): 28.7%; cytotoxicity at 10 µM (in vitro): -3%; Hs18S ΔCT (HCT-8 host cells (Hs18S)): -0.04
 | CC1=C2[C@H]3OC(=O)[C@@H](C)[C@@H]3CC[C@@]2(C)C=CC1=O [SANTONIN] | 9.41 |  | cytotoxicity at 10 µM (in vitro): 11.8%; Hs18S ΔCT (HCT-8 host cells (Hs18S); [2]): 0.18
-0.30 | CC(=O)O[C@H]1C[C@@]2(C)[C@@H](C[C@@H](O)[C@H]3[C@@]4(C)CC[C@@H](O)[C@@H](C)[C@@H]4CC[C@@]32C)/C1=C(\CCC=C(C)C)C(=O)O [FUSIDIC ACID] | -82.8 | -23.2 | 
 | O=C(O)CCCC[C@@H]1SC[C@@H]2NC(=O)N[C@@H]21 [BIOTIN] | 11.9 |  | cytotoxicity at 10 µM (in vitro): -18.4%; Hs18S ΔCT (HCT-8 host cells (Hs18S); [2]): -0.24
1.45 | CC1=C(CCC(=O)O)c2cc3[nH]c(cc4nc(cc5[nH]c(cc1n2)c(C)c5C(C)O)C(C)=C4C(C)O)c(C)c3CCC(=O)O (centres unmarked) [HAEMATOPORPHYRIN] | 93.1 | 63.3 | inhibition at 3.3 µM (Cryptosporidium parvum): 33%

SMILES | Hs18S ΔCT (HCT-8 host cells (Hs18S); human, 41 h, 10 μM) | inhibition at 10 µM (Cryptosporidium parvum; [1]) [%] | cytotoxicity at 41 h, 10 µM (in vitro; human) [%] | further results
CC(=O)O[C@H]1CC[C@@]2(C)C(=CC(=O)[C@H]3[C@@H]4CC[C@H]([C@H](C)CCCC(C)C)[C@@]4(C)CC[C@@H]32)C1 [7-OXOCHOLESTERYL ACETATE] | -0.20 | -24.9 | -15.2 | 
NCCc1ccc(O)cc1 [TYRAMINE] | -0.27 | -27.4 |  | cytotoxicity at 10 µM (in vitro): -20.9%
NCC(=O)c1ccccc1 [PHENACYLAMINE HYDROCHLORIDE] | 1.22 | 9.11 | 57 | 
Oc1cc2c(cc1O)C1c3ccc(O)c(O)c3OCC1(O)C2 (centres unmarked) [HAEMATOXYLIN] | 0.00 | -27.2 | 0.1 | 
CC(C)CCC[C@@H](C)[C@H]1CC[C@H]2[C@@H]3CC=C4C[C@@H](O)CC[C@]4(C)[C@H]3CC[C@]12C [CHOLESTEROL] | -0.05 | -26.8 |  | cytotoxicity at 10 µM (in vitro): -3.8%
CC1=CC(=O)c2c(O)cccc2C1=O [PLUMBAGIN] | 1.26 | 95.1 | 58.1 | inhibition at 3.3 µM (Cryptosporidium parvum): 13%
